Assay in all cases: Kinase selectivity, scanMAX Kinase assay panel (DiscoverX), % control at 1 uM
Assay type in all cases: binding

Experiment [1] deals with T1, scanMAX Kinase assay panel (Homo sapiens, UniProt Q08881).
T1 construct: purchased DiscoverX
T1 sequence (Q08881 1-620): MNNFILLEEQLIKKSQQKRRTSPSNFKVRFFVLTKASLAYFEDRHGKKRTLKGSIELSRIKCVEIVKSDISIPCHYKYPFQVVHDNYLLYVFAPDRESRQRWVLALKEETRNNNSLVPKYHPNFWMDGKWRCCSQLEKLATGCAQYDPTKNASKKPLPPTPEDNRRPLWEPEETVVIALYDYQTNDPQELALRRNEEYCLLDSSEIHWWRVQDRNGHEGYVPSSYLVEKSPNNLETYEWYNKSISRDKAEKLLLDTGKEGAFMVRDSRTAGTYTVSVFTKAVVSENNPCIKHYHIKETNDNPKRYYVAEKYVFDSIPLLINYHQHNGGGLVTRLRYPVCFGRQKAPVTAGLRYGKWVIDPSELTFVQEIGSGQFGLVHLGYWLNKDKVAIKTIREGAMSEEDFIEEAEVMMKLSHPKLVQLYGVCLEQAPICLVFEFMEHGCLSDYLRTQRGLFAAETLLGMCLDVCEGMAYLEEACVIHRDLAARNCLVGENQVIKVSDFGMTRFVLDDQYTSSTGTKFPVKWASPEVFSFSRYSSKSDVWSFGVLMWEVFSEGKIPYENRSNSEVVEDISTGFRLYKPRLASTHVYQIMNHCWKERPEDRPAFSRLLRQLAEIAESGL
As to conditions: ITK; 1 uM; read-out: Percent Control (%). Put shortly: (§1)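 1 uM cpd (DMSO) per kinase; % ctrl = [cpd − pos ctrl]/[neg ctrl − pos ctrl] × 100; hit if <35.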

For experiment [2], the target named is T2, scanMAX Kinase assay panel (Homo sapiens, UniProt Q15418).
T2 construct: purchased DiscoverX
As to conditions: 1 uM, read-out: Percent Control (%). Summed up:
as §1

The target of experiment [3] is T3, scanMAX Kinase assay panel (Homo sapiens, UniProt Q06187).
T3 construct: purchased DiscoverX
As to conditions: BTK; 1 uM; read-out: Percent Control (%). Summed up:
as §1

Experiment [4] deals with T4, scanMAX Kinase assay panel (Homo sapiens, UniProt Q9H2K8).
T4 construct: purchased DiscoverX
T4 sequence (Q9H2K8 1-898): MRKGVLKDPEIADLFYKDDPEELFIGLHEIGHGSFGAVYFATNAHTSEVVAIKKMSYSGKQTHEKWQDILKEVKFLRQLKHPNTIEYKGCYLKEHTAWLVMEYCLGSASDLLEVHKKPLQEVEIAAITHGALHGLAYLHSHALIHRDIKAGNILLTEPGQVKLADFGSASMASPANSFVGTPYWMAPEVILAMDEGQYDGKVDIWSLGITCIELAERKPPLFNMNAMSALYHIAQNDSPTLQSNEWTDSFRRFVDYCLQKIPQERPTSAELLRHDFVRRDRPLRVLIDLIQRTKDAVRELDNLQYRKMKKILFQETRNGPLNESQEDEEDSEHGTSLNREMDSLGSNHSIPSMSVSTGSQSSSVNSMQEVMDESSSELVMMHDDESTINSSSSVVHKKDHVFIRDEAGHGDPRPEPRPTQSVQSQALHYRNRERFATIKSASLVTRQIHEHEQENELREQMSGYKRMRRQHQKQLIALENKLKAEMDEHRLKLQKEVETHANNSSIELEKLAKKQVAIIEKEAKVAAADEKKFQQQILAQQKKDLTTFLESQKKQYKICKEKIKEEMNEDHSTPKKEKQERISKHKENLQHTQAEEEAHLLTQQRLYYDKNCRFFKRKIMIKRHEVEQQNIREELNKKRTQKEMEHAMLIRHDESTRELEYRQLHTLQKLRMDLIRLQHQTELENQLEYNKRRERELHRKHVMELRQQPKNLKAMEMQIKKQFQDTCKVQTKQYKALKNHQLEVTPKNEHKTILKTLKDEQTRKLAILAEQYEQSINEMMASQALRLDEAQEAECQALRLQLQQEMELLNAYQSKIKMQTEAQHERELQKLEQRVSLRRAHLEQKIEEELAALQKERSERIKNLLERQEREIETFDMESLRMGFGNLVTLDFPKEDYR
As to conditions: TAOK3; 1 uM; read-out: Percent Control (%). Summed up:
as §1

In experiment [5] the target is T5, scanMAX Kinase assay panel (Homo sapiens, UniProt Q59H18).
T5 construct: purchased DiscoverX
T5 sequence (Q59H18 1-835): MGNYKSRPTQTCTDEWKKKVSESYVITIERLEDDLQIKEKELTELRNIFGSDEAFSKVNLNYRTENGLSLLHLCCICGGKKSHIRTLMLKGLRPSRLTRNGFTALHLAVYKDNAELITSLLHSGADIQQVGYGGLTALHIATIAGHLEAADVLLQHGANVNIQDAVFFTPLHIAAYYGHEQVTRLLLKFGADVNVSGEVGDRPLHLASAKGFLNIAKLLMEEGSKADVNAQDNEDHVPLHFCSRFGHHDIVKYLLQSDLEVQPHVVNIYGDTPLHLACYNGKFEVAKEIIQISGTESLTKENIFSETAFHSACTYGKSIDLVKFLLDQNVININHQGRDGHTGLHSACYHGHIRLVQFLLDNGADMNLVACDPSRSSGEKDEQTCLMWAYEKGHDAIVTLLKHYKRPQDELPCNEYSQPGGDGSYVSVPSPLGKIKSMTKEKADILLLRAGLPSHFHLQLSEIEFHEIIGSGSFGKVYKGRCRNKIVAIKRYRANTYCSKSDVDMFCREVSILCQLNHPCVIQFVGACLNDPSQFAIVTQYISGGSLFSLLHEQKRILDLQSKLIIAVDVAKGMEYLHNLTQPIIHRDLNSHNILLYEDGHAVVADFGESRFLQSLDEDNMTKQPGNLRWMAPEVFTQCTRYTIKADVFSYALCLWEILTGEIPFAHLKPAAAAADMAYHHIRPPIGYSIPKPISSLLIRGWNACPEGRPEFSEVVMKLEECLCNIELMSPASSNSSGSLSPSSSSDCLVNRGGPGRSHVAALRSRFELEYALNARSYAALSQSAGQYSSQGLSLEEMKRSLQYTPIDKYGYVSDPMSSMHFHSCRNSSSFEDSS
As to conditions: TNNI3K; 1 uM; read-out: Percent Control (%). Put shortly: as §1

Each structure is given as a SMILES string. Read-outs that look alike come from different tables or passages of the source.

T2 sequence (Q15418 whole entry): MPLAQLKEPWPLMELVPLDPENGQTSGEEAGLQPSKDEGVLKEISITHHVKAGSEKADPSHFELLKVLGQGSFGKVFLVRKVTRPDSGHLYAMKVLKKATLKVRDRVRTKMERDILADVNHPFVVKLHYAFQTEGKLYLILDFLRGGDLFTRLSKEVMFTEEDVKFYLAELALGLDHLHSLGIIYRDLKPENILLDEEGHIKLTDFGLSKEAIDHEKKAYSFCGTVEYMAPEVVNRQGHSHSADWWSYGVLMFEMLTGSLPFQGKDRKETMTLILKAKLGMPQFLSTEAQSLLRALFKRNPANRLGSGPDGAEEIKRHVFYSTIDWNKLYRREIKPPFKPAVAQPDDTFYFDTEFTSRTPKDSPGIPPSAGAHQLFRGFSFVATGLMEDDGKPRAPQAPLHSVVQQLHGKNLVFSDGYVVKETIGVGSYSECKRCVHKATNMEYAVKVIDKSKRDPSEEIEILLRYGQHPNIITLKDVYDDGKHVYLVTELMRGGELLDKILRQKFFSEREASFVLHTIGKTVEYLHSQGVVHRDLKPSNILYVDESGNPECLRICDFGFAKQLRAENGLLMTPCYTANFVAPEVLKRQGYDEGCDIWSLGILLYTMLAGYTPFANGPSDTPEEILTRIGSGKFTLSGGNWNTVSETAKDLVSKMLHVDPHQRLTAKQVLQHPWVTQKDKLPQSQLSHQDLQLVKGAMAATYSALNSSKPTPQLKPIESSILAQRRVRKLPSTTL
T3 sequence (Q06187 whole entry): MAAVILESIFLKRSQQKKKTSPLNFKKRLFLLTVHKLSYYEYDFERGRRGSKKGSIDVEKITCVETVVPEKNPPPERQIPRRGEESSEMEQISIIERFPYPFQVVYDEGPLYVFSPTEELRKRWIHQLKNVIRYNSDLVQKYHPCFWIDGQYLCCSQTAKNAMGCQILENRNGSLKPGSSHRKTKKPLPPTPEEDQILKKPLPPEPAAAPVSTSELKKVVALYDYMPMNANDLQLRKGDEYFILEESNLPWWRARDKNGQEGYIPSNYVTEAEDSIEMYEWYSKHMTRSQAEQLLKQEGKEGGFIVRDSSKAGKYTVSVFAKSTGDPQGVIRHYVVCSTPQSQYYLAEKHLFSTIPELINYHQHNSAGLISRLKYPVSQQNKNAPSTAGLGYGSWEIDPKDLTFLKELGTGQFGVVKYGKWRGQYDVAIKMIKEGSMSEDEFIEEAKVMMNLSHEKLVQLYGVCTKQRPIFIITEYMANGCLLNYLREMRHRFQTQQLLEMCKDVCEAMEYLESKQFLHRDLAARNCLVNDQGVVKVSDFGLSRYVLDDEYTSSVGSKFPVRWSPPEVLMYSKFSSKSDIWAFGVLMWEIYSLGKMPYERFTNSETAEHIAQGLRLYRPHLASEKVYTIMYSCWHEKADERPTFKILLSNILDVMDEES

Turning to `Cc1ccc(C(=O)Nc2ccc(CN3CCN(C)CC3)c(C(F)(F)F)c2)cc1C#Cc1cnc2c(Nc3cnn(C)c3)cccn12` [Example 1, 4-methyl-3-((8-((1-methyl-1H-pyrazol-4-yl)amino)imidazo[1,2-a]pyridin-3-yl)ethynyl)-N-(4-((4-methylpiperazin-1-yl)methyl)-3-(trifluoromethyl)phenyl)benzamide], the remaining binding at 1 µM in experiment [1] is 0%; in experiment [2] (RSK1 (Kin.Dom.1-N-terminal)), 60%; in experiment [2] (RSK1 (Kin.Dom.2-C-terminal)) it was 64%; in experiment [3] it was 1%; in experiment [4], 1%; in experiment [5] it was 0%.

As to `Cc1cn(-c2cc(NC(=O)c3ccc(C)c(C#Cc4cnc5c(Nc6cnn(C)c6)cccn45)c3)cc(C(F)(F)F)c2)cn1` [Example 12, 4-methyl-N-(3-(4-methyl-1H-imidazol-1-yl)-5-(trifluoromethyl)phenyl)-3-((8-((1-methyl-1H-pyrazol-4-yl)amino)imidazo[1,2-a]pyridin-3-yl)ethynyl)benzamide], the remaining binding at 1 µM in experiment [1] was 69%; in experiment [2] (RSK1 (Kin.Dom.1-N-terminal)) it was 79%; in experiment [2] (RSK1 (Kin.Dom.2-C-terminal)) it was 69%; in experiment [3] it was 37%; in experiment [4] it was 61%; in experiment [5] it was 25%.

Consider `Cc1ccc(NC(=O)C2(C(=O)Nc3ccc(F)cc3)CC2)cc1C#Cc1cnc2c(Nc3cnn(C(C)C)c3)cccn12` [Example 78], for which the remaining binding at 1 µM in experiment [1] worked out at 97%; in experiment [2] (RSK1 (Kin.Dom.1-N-terminal)) it was 100%; in experiment [2] (RSK1 (Kin.Dom.2-C-terminal)), 95%; in experiment [3], 100%; in experiment [4], 99%; in experiment [5], 93%.

The record behind these values is US10870647B2, “Imidazopyridine derivative, method for preparing same, and pharmaceutical composition containing same as active ingredient for preventing or treating cancer” (DAEGU-GYEONGBUK MEDICAL INNOVATION FOUNDATION, priority 2016, dated 2020).
